Measurements published in US5856341A, “Benzo [B] indeno [2,1-D] thiophene compounds, intermediates, processes, compositions and methods” (Eli Lilly and Company, priority 1997, dated 1999).

How the values were obtained:
uterus = experiment: Uterine weight in ovariectomized rats, 4 days daily oral dosing (postmenopausal model); assay type: in vivo, Sprague Dawley rats; conditions: daily for 4 days, OVX rats
Procedure: (§1) In the examples illustrating the methods, a postmenopausal model was used in which effects of different treatments upon circulating lipids were determined.
(§2) Seventy-five day old female Sprague Dawley rats (weight range of 200 to 225 g) were obtained from Charles River Laboratories (Portage, Mich.). The animals were either bilaterally ovariectomized (OVX) or exposed to a Sham surgical procedure at Charles River Laboratories, and then shipped after one week. Upon arrival, they were housed in metal hanging cages in groups of 3 or 4 per cage and had ad libitum access to food (calcium content approximately 0.5%) and water for one week. Room temperature was maintained at 22.2°±1.7° C. with a minimum relative humidity of 40%. The photoperiod in the room was 12 hours light and 12 hours dark.
(§3) Dosing Regimen Tissue Collection. After a one week acclimation period (therefore, two weeks post-OVX) daily dosing with test compound was initiated. 17α-ethynyl estradiol or the test compound were given orally, unless otherwise stated, as a suspension in 1% carboxymethylcellulose or dissolved in 20% cyclodextrin. Animals were dosed daily for 4 days. Following the dosing regimen, animals were weighed and anesthetized with a ketamine: xylazine (2:1, V:V) mixture and a blood sample was collected by cardiac puncture. The animals were then sacrificed by asphyxiation with CO2, the uterus was removed through a midline incision, and a wet uterine weight was determined.
(§4) Source of Compound: 17α-ethynyl estradiol was obtained from Sigma Chemical Co., St. Louis, Mo.
(§5) Data presented in Table 1 below show comparative results among ovariectomized rats, rats treated with 17α-ethynyl estradiol (EE2; an orally available form of estrogen), and rats treated with certain compounds of the instant invention. […] This uterine response to estrogen is well recognized in the art.
(§6) The data presented in Table 1 below reflects the response of 5 to 6 rats per treatment.

Eosinophil peroxidase = experiment: Uterine Eosinophil Peroxidase (EPO) Assay in ovariectomized rats; assay type: in vivo, Sprague Dawley rats; conditions: daily for 4 days, OVX rats
Procedure: as §1, §2, §3
Uterine Eosinophil Peroxidase (EPO) Assay. Uteri were kept at 4° C. until time of enzymatic analysis. The uteri were then homogenized in 50 volumes of 50 mM Tris buffer (pH-8.0) containing 0.005% Triton X-100. Upon addition of 0.01% hydrogen peroxide and 10 mM O-phenylenediamine (final concentrations) in Tris buffer, increase in absorbance was monitored for one minute at 450 nm. The presence of eosonophils in the uterus is an indication of estrogenic activity of a compound. The maximal velocity of a 15 second interval was determined over the initial, linear portion of the reaction curve.
as §4
As is expressed in the data below, estrogenicity also was assessed by evaluating the adverse response of eosinophil infiltration into the uterus.
as §6

serum cholesterol = experiment: Serum cholesterol in ovariectomized rats (Cholesterol Analysis); assay type: in vivo, Sprague Dawley rats; conditions: daily for 4 days, OVX rats
Procedure: as §1, §2, §3
Cholesterol Analysis. Blood samples were allowed to clot at room temperature for 2 hours, and serum was obtained following centrifugation for 10 minutes at 3000 rpm. Serum cholesterol was determined using a Boehringer Mannheim Diagnostics high performance cholesterol assay. Briefly the cholesterol was oxidized to cholest-4-en-3-one and hydrogen peroxide. The hydrogen peroxide was then reacted with phenol and 4-aminophenazone in the presence of peroxidase to produce a p-quinone imine dye, which was read spectrophotemetrically at 500 nm. Cholesterol concentration was then calculated against a standard curve.
as §4, §5, §6

femur = experiment: Osteoporosis Test Procedure: bone protection in ovariectomized rats, 35 days oral; assay type: in vivo; conditions: 35 days, relative to ovariectomy
Procedure: Following the General Preparation Procedure, infra, the rats are treated daily for 35 days (6 rats per treatment group) and sacrificed by carbon dioxide asphyxiation on the 36th day. The 35 day time period is sufficient to allow maximal reduction in bone density, measured as described herein. At the time of sacrifice, the uteri are removed, dissected free of extraneous tissue, and the fluid contents are expelled before determination of wet weight in order to confirm estrogen deficiency associated with complete ovariectomy. […] The uteri are then placed in 10% neutral buffered formalin to allow for subsequent histological analysis. The right femurs are excised and digitilized x-rays generated and analyzed by an image analysis program (NIH image) at the distal metaphysis. The proximal aspect of the tibiae from these animals are also scanned by quantitative computed tomography. In accordance with the above procedures, compounds of the instant invention and ethynyl estradiol (EE2) in 20% hydroxypropyl β-cyclodextrin are orally administered to test animals. Distal femur metaphysis and proximal tibiae data are the results of formula I compound treatments compared to intact and ovariectomized test animals. Results are reported as percent protection relative to ovariectomy in Table 2 below.

[1] = tested on: MCF-7 breast adenocarcinoma cells; experiment: MCF-7 Proliferation Assay (tritiated thymidine incorporation); assay type: cell-based; conditions: Homo sapiens, MCF7; 48 hours with drug, then tritiated thymidine 4 hours; read-out: ED50 (MCF-7 proliferation)
Procedure: MCF-7 breast adenocarcinoma cells (ATCC HTB 22) were maintained in MEM (minimal essential medium, phenol red-free, Sigma, St. Louis, Mo.) supplimented with 10% fetal bovine serum (FBS) (V/V), L-glutamine (2 mM), sodium pyruvate (1 mM), HEPES {(N-[2-hydroxyethyl]piperazine-N'-[2-ethanesulfonic acid]10 mM}, non-essential amino acids and bovine insulin (1 μg/mL) (maintenance medium). Ten days prior to assay, MCF-7 cells were switched to maintenance medium supplemented with 10% dextran coated charcoal stripped fetal bovine serum (DCC-FBS) assay medium) in place of 10% FBS to deplete internal stores of steroids. MCF-7 cells were removed from maintenance flasks using cell dissociation medium (Ca^++ /Mg^++ free HBSS (phenol red-free) supplemented with 10 mM HEPES and 2 mM EDTA). Cells were washed twice with assay medium and adjusted to 80,000 cells/mL. Approximately […] (8,000 cells) were added to flat-bottom microculture wells (Costar 3596) and incubated at 37° C. in a 5% CO2 humidified incubator for 48 hours to allow for cell adherence and equilibration after transfer. Serial dilutions of drugs or DMSO as a diluent control were prepared in assay medium and […] to triplicate microcultures followed by […] assay medium for a final volume of […]. After an additional 48 hours at 37° C. in a 5% CO2 humidified incubator, microcultures were pulsed with tritiated thymidine (1 uCi/well) for 4 hours. Cultures were terminated by freezing at -70° C. for 24 hours followed by thawing and harvesting of microcultures using a Skatron Semiautomatic Cell Harvester. Samples were counted by liquid scintillation using a Wallace BetaPlace β counter. Results in Table 3 below show the ED50 (nM) for certain compounds of the instant invention: […]

Question: Which results are given for `Cl.Oc1ccc2c3c(sc2c1)-c1ccccc1C3c1ccc(OCCN2CCCCC2)cc1` (stereo not drawn) [Example 6, 10-[4-[2-(1-Piperidinyl)ethoxy]phenyl]-7-hydroxy benzo[b]indeno[2,1-d]thiophene hydrochloride]?
Answer: Uterine Weight % Increase verses ovariectomized controls (uterus; 0.1 mg/kg PO): 32.5%; Uterine Weight % Increase verses ovariectomized controls (uterus; 1 mg/kg PO): 67.4%; Uterine Weight % Increase verses ovariectomized controls (uterus; 10 mg/kg PO): 54.0%; Uterine Eosinophil peroxidase, Vmax (Eosinophil peroxidase; 0.1 mg/kg PO): 2.9; Uterine Eosinophil peroxidase, Vmax (Eosinophil peroxidase; 1 mg/kg PO): 3.7; Uterine Eosinophil peroxidase, Vmax (Eosinophil peroxidase; 10 mg/kg PO): 29.8; Serum Cholest. % Decrease verses ovariectomized controls (serum cholesterol; 0.1 mg/kg PO): 1.3%; Serum Cholest. % Decrease verses ovariectomized controls (serum cholesterol; 1 mg/kg PO): 40.6%; Serum Cholest. % Decrease verses ovariectomized controls (serum cholesterol; 10 mg/kg PO): 69.9%; Femur BMD % protection (femur; 0.01 mg/kg oral): 40.4%; Femur. % Protection (x-ray image) (femur; 0.01 mg/kg oral): 53.8%; Femur BMD % protection (femur; 0.1 mg/kg oral): 46.6%; Femur. % Protection (x-ray image) (femur; 0.1 mg/kg oral): 39.2%; Femur BMD % protection (femur; 1 mg/kg oral): 66.6%; Femur. % Protection (x-ray image) (femur; 1 mg/kg oral): 73.4%; Femur BMD % protection (femur; 10 mg/kg oral): 64.0%; Femur. % Protection (x-ray image) (femur; 10 mg/kg oral): 48.2%; IC50 [1]: 10 nM
